Usually pIC50 stands for the IC50 on a negative log10 scale, so that one unit is a factor of ten.

pIC50: −log10 of the molar value. Where two headings read alike, the source gives them in different places. Where only a bound is given, the exact number is not on record here.

Assay [1] deals with T1, Recombinant STAT3 protein (STAT3 (G127-I722)) (Homo sapiens, UniProt P40763).
T1 construct: Recombinant STAT3 protein (STAT3 (G127-I722))
As to the kind of experiment: STAT3 Fluorescence Polarization (FP) Assay. The settings on record: STAT3 (G127-I722) 25 nM, probe 5-FAM-GpYLPQTV-NH2 2 nM, 45-minute incubation; read-out: STAT3 (FP assay IC50 class). The assay is classed as binding. Summed up:
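Compounds in serial dilution receive a premix of STAT3 (G127-I722, 25 nM) and fluorescent phosphotyrosine peptide 5-FAM-GpYLPQTV-NH2 (2 nM) at pH 7.4. After 45 min at room temperature, FP is measured and IC50 derived by nonlinear regression.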
For orientation: Fluorescence polarisation rises when a labelled molecule tumbles more slowly, as on binding a larger partner.

Assay [2] concerns the target T2, Recombinant STAT6 protein (STAT6 (W123-T658)) (Homo sapiens, UniProt P42226).
T2 construct: Recombinant STAT6 protein (STAT6 (W123-T658))
T2 sequence (P42226 123-658): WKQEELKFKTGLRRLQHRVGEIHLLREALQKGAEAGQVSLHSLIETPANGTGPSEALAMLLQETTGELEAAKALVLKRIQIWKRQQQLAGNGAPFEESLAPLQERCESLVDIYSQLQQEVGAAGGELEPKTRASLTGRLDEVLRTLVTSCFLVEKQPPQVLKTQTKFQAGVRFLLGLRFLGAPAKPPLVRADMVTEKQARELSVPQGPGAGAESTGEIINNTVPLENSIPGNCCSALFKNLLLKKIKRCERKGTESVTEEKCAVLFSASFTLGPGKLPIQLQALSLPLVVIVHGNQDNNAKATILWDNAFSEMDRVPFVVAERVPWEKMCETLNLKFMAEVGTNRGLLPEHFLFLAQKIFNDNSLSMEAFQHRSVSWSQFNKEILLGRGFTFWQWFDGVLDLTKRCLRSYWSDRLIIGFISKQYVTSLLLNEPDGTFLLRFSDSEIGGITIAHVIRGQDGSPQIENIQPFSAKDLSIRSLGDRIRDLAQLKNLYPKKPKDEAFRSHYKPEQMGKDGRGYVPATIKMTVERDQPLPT
As to the kind of experiment: STAT6 Fluorescence Polarization (FP) Assay. It is filed as binding. The settings on record: STAT6 (W123-T658) 250 nM, 45-minute incubation, read-out: STAT6 (FP assay IC50 class). In a few lines:
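Serially diluted compounds received a premix of STAT6 (W123-T658, 250 nM) and 5-FAM peptide probe (2 nM) in pH 7.4 HEPES buffer containing DTT and Tween 20. Following 45 min at room temperature, FP was recorded. IC50s were fitted by nonlinear regression; values are binned A (≤300 nM), B (>300-3000 nM), C (>3-30 μM), D (>30 μM).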

T1 sequence (P40763 127-722): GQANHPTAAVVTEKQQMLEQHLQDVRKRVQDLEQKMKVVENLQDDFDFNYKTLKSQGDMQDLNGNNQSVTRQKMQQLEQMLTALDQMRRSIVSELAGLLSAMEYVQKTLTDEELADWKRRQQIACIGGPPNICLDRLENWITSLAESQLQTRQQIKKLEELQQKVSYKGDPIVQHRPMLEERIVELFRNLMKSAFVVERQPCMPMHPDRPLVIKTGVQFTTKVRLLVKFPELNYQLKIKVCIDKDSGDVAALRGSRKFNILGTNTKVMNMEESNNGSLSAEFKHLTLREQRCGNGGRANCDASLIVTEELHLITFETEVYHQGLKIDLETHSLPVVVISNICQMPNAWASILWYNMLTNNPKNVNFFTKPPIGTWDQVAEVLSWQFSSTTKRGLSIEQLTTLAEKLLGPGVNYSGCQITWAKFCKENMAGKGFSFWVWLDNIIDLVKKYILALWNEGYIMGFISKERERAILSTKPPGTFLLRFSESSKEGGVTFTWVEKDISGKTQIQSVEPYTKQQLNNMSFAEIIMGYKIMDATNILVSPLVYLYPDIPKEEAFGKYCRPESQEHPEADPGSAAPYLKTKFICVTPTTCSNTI

On to `O=C(N[C@H]1CCCC[C@H]2CC[C@@H](C(=O)NCc3ccn[nH]3)N2C1=O)c1cc2cc(C(F)(F)P(=O)(O)O)ccc2s1` [Compound 726, ((2-(((3S,6S,10aS)-3-(((212-pyrazol-3-yl)methyl)carbamoyl)-5-oxodecahydropyrrolo [1,2-a]azocin-6-yl)carbamoyl)benzo [b]thiophen-5-yl)difluoromethyl) phosphonic acid], for which the negative-log IC50 (pIC50) in assay [1] is 6.00 to 7.00; in assay [2] (probe 5-FAM-Ap[…]-NH2 2 nM), 4.52 to 5.52.

In the case of `O=C(N[C@H]1CCCC[C@H]2CC[C@@H](C(=O)N[C@@H](CO)Cc3cccnc3)N2C1=O)c1cc2cc(C(F)(F)P(=O)(O)O)ccc2s1` [Compound 727, (difluoro(2-(((3S,6S,10aS)-3-(((R)-1-hydroxy-3-(pyridin-3-yl)propan-2-yl)carbamoyl)-5-oxodecahydropyrrolo [1,2-a]azocin-6-yl)carbamoyl)benzo [b]thiophen-5-yl)methyl) phosphonic acid], the results for the pIC50 in assay [1] and in assay [2] (probe 5-FAM-Ap[…]-NH2 2 nM) were 5.00 to 6.00 and 4.52 to 5.52, respectively.

For the compound `O=C(N[C@H]1CC[C@H]2CC[C@@H](C(=O)N3CC(c4ccccn4)C3)N2C1=O)c1cc2cc(C(F)(F)P(=O)(O)O)ccc2s1` [Compound 728, (difluoro(2-(((3S,6S,8aS)-5-oxo-3-(3-(pyridin-2-yl)azetidine-1-carbonyl)octahydroindolizin-6-yl)carbamoyl)benzo [b]thiophen-5-yl)methyl) phosphonic acid], the values for the pIC50 in assay [1] and in assay [2] (probe 5-FAM-Ap[…]-NH2 2 nM) were 6.00 to 7.00 and 4.52 to 5.52, respectively.

Regarding `O=C(N[C@H]1C/C=C\C[C@@H]2[C@H](O)C[C@@H](C(=O)N3CC(C(=O)N4CCOCC4)C3)N2C1=O)c1cc2cc(C(F)(F)P(=O)(O)O)ccc2s1` [Compound 730, (difluoro(2-(((1R,3S,6S,10aR,Z)-1-hydroxy-3-(3-(morpholine-4-carbonyl)azetidine-1-carbonyl)-5-oxo-1,2,3,5,6,7,10,10a-octahydropyrrolo[1,2-a]azocin-6-yl)carbamoyl)benzo [b]thiophen-5-yl)methyl) phosphonic acid], the pIC50 in assay [1] was 5.00 to 6.00; in assay [2] (probe 5-FAM-Ap[…]-NH2 2 nM) it was 4.52 to 5.52.

For `O=C(N[C@H]1CC[C@H]2CC[C@@H](C(=O)N3CC(C(=O)N4CCOCC4)C3)N2C1=O)c1cc2cc(C(F)(F)P(=O)(O)O)ccc2s1` [Compound 731, (difluoro(2-(((3S,6S,8aS)-3-(3-(morpholine-4-carbonyl)azetidine-1-carbonyl)-5-oxooctahydro-indolizin-6-yl)carbamoyl)benzo [b]thiophen-5-yl)methyl) phosphonic acid], the pIC50 is 5.00 to 6.00 in assay [1] and 4.52 to 5.52 in assay [2] (probe 5-FAM-Ap[…]-NH2 2 nM).

In the case of `O=C(N[C@H]1CC[C@H]2CC[C@@H](C(=O)N3CC(n4ccnc4)C3)N2C1=O)c1cc2cc(C(F)(F)P(=O)(O)O)ccc2s1` [Compound 732, ((2-(((3S,6S,8aS)-3-(3-(1H-imidazol-1-yl)azetidine-1-carbonyl)-5-oxooctahydro-indolizin-6-yl)carbamoyl)benzo [b]thiophen-5-yl)difluoromethyl) phosphonic acid], the figures for the pIC50 in assay [1] and in assay [2] (probe 5-FAM-Ap[…]-NH2 2 nM) were 5.00 to 6.00 and 4.52 to 5.52, respectively.

Regarding `Cn1cc(C2CN(C(=O)[C@@H]3CC[C@@H]4CCC[C@H](NC(=O)c5cc6cc(C(F)P(=O)(O)O)ccc6s5)C(=O)N43)C2)c(C#N)n1` (stereo partly drawn) [Compound 734, ((2-(((3S,6S,9aS)-3-(3-(3-cyano-1-methyl-1H-pyrazol-4-yl)azetidine-1-carbonyl)-5-oxooctahydro-1H-pyrrolo[1,2-a]azepin-6-yl)carbamoyl)benzo [b]thiophen-5-yl)fluoromethyl) phosphonic acid], the results for the pIC50 in assay [1] and in assay [2] (probe 5-FAM-Ap[…]-NH2 2 nM) were 6.00 to 7.00 and 5.52 to 6.52, respectively.

For `C[C@@H]1C[C@H]2CC[C@@H](C(=O)N3CC(c4cnccc4N(C)C)C3)N2C(=O)[C@@H](NC(=O)c2cc3cc([C@H](F)P(=O)(O)O)ccc3s2)C1` [Compound 735, ((R)-(2-(((3S,6S,8S,9aR)-3-(3-(4-(dimethylamino)pyridin-3-yl)azetidine-1-carbonyl)-8-methyl-5-oxooctahydro-1H-pyrrolo[1,2-a]azepin-6-yl)carbamoyl)benzo [b]thiophen-5-yl)fluoromethyl) phosphonic acid], the pIC50 in assay [1] was greater than 7.00; in assay [2] (probe 5-FAM-Ap[…]-NH2 2 nM), 4.52 to 5.52.

Regarding `C[C@H]1C[C@H]2CC[C@@H](C(=O)N3CC(c4cnccc4N(C)C)C3)N2C(=O)[C@@H](NC(=O)c2cc3cc([C@H](F)P(=O)(O)O)ccc3s2)C1` [Compound 736, ((R)-(2-(((3S,6S,8R,9aR)-3-(3-(4-(dimethylamino)pyridin-3-yl)azetidine-1-carbonyl)-8-methyl-5-oxooctahydro-1H-pyrrolo[1,2-a]azepin-6-yl)carbamoyl)benzo [b]thiophen-5-yl)fluoromethyl) phosphonic acid], the values for the pIC50 in assay [1] and in assay [2] (probe 5-FAM-Ap[…]-NH2 2 nM) were greater than 7.00 and 4.52 to 5.52, respectively.

Take `C[C@@H]1[C@@H](c2cccnc2)CN1C(=O)[C@@H]1CC[C@@H]2CCC[C@H](NC(=O)c3cc4cc(C(F)P(=O)(O)O)ccc4s3)C(=O)N21` (stereo partly drawn) [Compound 737, (fluoro(2-(((3S,6S,9aS)-3-((2R,3S)-2-methyl-3-(pyridin-3-yl)azetidine-1-carbonyl)-5-oxooctahydro-1H-pyrrolo[1,2-a]azepin-6-yl)carbamoyl)benzo [b]thiophen-5-yl)methyl) phosphonic acid Or (fluoro(2-(((3S,6S,9aS)-3-((2S,3R)-2-methyl-3-(pyridin-3-yl)azetidine-1-carbonyl)-5-oxooctahydro-1H-pyrrolo[1,2-a]azepin-6-yl)carbamoyl)benzo [b]thiophen-5-yl)methyl) phosphonic acid]: the values for the pIC50 in assay [1] and in assay [2] (probe 5-FAM-ApYKPFQDLI-NH2 2 nM) were greater than 7.00 and 4.52 to 5.52, respectively.

Turning to `CN(C)c1ncncc1C1CN(C(=O)[C@@H]2CC[C@@H]3CCC[C@H](NC(=O)c4cc5cc(C(F)P(=O)(O)O)ccc5s4)C(=O)N32)C1` (stereo partly drawn) [Compound 739, ((2-(((3S,6S,9aS)-3-(3-(4-(dimethylamino)pyrimidin-5-yl)azetidine-1-carbonyl)-5-oxooctahydro-1H-pyrrolo[1,2-a]azepin-6-yl)carbamoyl)benzo [b]thiophen-5-yl)fluoromethyl) phosphonic acid], the pIC50 was greater than 7.00 in assay [1] and 4.52 to 5.52 in assay [2] (probe 5-FAM-Ap[…]-NH2 2 nM).

For the compound `Cn1ncc(C2CN(C(=O)[C@@H]3CC[C@@H]4CCC[C@H](NC(=O)c5cc6cc(C(F)P(=O)(O)O)ccc6s5)C(=O)N43)C2)c1C#N` (stereo partly drawn) [Compound 743, ((2-(((3S,6S,9aS)-3-(3-(5-cyano-1-methyl-1H-pyrazol-4-yl)azetidine-1-carbonyl)-5-oxooctahydro-1H-pyrrolo[1,2-a]azepin-6-yl)carbamoyl)benzo [b]thiophen-5-yl)fluoromethyl) phosphonic acid], the pIC50 in assay [1] was 5.00 to 6.00; in assay [2] (probe 5-FAM-Ap[…]-NH2 2 nM) it was 4.52 to 5.52.

For the compound `COc1ccncc1C1CN(C(=O)[C@@H]2CC[C@@H]3C[C@@H](C)C[C@H](NC(=O)c4cc5cc([C@H](F)P(=O)(O)O)ccc5s4)C(=O)N32)C1` [Compound 749, ((R)-fluoro(2-(((3S,6S,8S,9aR)-3-(3-(4-methoxypyridin-3-yl)azetidine-1-carbonyl)-8-methyl-5-oxooctahydro-1H-pyrrolo[1,2-a]azepin-6-yl)carbamoyl)benzo [b]thiophen-5-yl)methyl) phosphonic acid], the pIC50 was greater than 7.00 in assay [1] and 4.52 to 5.52 in assay [2] (probe 5-FAM-Ap[…]-NH2 2 nM).

Source of the values: patent US20250215029A1 (Recludix Pharma, Inc., priority 2022, published 2025).
